Data reported in patent US11840518B2, “Use of bromophenol-pyrazoline compounds for the treatment of feline coronavirus diseases” (Shandong Linghai Biotechnology Co., Ltd., priority 2021, dated 2023).

What was measured:
[1] = tested on: FIPV; assay: Clinical trial in cats infected with the FIPV (feline infectious peritonitis); assay type: in vivo; settings: for Moderate response: 4-week treatment
Description: Serology or morphology cannot distinguish feline enteric coronavirus from the FIPV. According to the history, epidemiology, clinical symptoms, laboratory diagnosis, imaging examination and histopathological examination, the cats were diagnosed comprehensively after other diseases were ruled out.
Thirty cats infected with the FIPV were divided into a wet FIP group (n=17) and a dry FIP group (n=13) according to presence of significant pleural effusion, ascites, dyspnea and other symptoms (fibrous pleurisy and peritonitis). The wet FIP group (17 cats) was randomly divided into a control group (3 cats), a GS-441524 group (6 cats) and a compound 5 group (8 cats). The dry FIP group (13 cats) was randomly divided into a control group (2 cats), a GS-441524 group (5 cats) and a compound 5 group (6 cats).
For the wet and dry GS-441524 groups: 4.0 mg/kg was administered subcutaneously every 24 hours; and for the wet and dry compound 5 groups: 3 mg/kg was orally administered after dissolved in glucose solution once a day.
Rectal temperature was measured at least once a day, and body weight, respiration, appetite and activity were observed. Special people were arranged to feed the cats, and foodware was washed and disinfected every day. The cats with good appetite were fed with conventional cat food, and high protein pet food can was used as nutritional supplement. The cats with poor appetite were subject to nasal feeding and intravenous injection for nutritional supplement to ensure nutrition intake of the experimental cats. At the same time, defecation and urination were also observed in terms of volume and shape. The cats were examined for blood routine indexes, serum biochemical indicators and abdominal B ultrasound condition according to actual situation.
Cases with good appetite, body weight, respiration, body temperature and other body conditions at the completion of 4-week treatment, and examined for the blood routine indexes and serum biochemical indicators twice (more than 1 week apart) were defined as effective.

[2] = tested on: FIPV wild strain in CRFK cells; assay: Interference with FIPV replication in infected CRFK cells (qRT-PCR of vRNA in supernatant); assay type: cell-based, feline infectious peritonitis virus; settings: 5 μM, CRFK cells infected with wild-type FIPV, 24 hours; FIG. 2
Description: To further confirm in vitro enzymatic inhibition results, the inventors evaluated whether the bromophenol-pyrazoline compounds could prevent FIPV replication in clinical wild-type FIPV-infected Crandell-Rees feline kidney (CRFK) cells.
The CRFK cells were cultured with DMEM containing 8% fetal bovine serum in a cell incubator with 5% CO2 at 37° C. When the cells grew to a density of about 80%, the cells were pretreated with 5 μM bromophenol-pyrazoline compounds to be tested for 1 hour, and then an FIPV wild strain (MOI=0.1) was inoculated into the CRFK cells. The CRFK cells inoculated with virus but without the compounds were set up as controls. After 24 hours, a cell supernatant was collected, and vRNA in the supernatant was subject to qRT-PCR analysis.

[3] = tested on: FIP; settings: 4 weeks of continuous treatment at 4 mg/kg; cited from earlier work
[4] = dry FIP group, number of cats (GS-441524 group n=5, 4.0 mg/kg s.c.; compound 5 group n=6, 3 mg/kg oral)
[5] = dry FIP group, number of cats (GS-441524 group n=5; compound 5 group n=6)
[6] = wet FIP group, number of cats (GS-441524 group n=6, 4.0 mg/kg s.c.; compound 5 group n=8, 3 mg/kg oral)
[7] = wet FIP group, number of cats (GS-441524 group n=6; compound 5 group n=8)

| SMILES | time within which ocular lesions in some cats began to resolve significantly ([1]; Compound 5 treatment group) [h] | treatment time after which normal cat food was given ([1]; Compound 5 treatment group) [days] | treatment time after which the body temperature returned to normal and the body weight increased ([1]; Compound 5 treatment group) [days] | comparison with the positive drug GS-441524 group ([1]; compound 5 3 mg/kg oral once a day vs GS-441524 4.0 mg/kg s.c. every 24 hours) | Clinical manifestations: time within which ocular lesions in some cats began to resolve significantly ([1]; dry FIP group) | Clinical manifestations: treatment time after which normal/ordinary cat food was given ([1]; dry FIP group) | Clinical manifestations: treatment time after which the intake returned to normal ([1]; dry FIP group) | Death [1, 4] | Moderate response [1, 5] | Clinical manifestations: treatment time after which ascites and dyspnea basically recovered ([1]; wet FIP group) | Clinical manifestations: treatment time after which the normal cat food was given ([1]; wet FIP group) | Death [1, 6] | Moderate response [1, 7] | ability to interfere with the FIPV virus replication [2] | Clinical manifestations: treatment time after which the food intake recovered ([1]; dry FIP group) | Clinical manifestations: treatment time after which the food intake recovered ([1]; wet FIP group) | cats with the FIP in remission [3] |
| --- | --- | --- | --- | --- | --- | --- | --- | --- | --- | --- | --- | --- | --- | --- | --- | --- | --- |
| COc1ccc(C2=NN(C(N)=S)C(c3cc(O)c(O)c(Br)c3Br)C2)cc1 (stereo not drawn) [Compound 5] | ≤ 48 | 1 | 7 | faster onset of action, fewer deaths and higher response rate | 48 hours, and the | given after 1 day of days | normal after 3 days | 0 | 5 | after 10 days of | After 1 day of treat- | 1 | 6 | strongest ability to inhibit FIPV virus replication |  |  |  |
| N#C[C@@]1(c2ccc3c(N)ncnn23)O[C@H](CO)[C@@H](O)[C@H]1O [GS-441524, reference compound] |  |  |  |  |  |  |  | 0 | 3 |  |  | 1 | 3 |  | After 3 days of treat- | After 3 days of treat- | about 60% |
